Article PMC10584170, “Machine learning-based phenotypic imaging to characterise the targetable biology of Plasmodium falciparum male gametocytes for the development of transmission-blocking antimalarials” (PLOS Pathogens, 2023)
Where two headings read alike, the source gives them in different places.

Columns and labels:
[1] = system: P. falciparum male gametocytes; test: P. falciparum Dual Gamete Formation Assay (PfDGFA), male readout (exflagellation); assay type: cell-based, Plasmodium falciparum NF54; details: for inhibition at 2 µM: 24h preincubation with gametocytes; for Activity: hit = >50% inhibition in male or female readout in at least 3 replicates, 0 = no class assigned
Method in brief: (§1)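 Read-outs are automated image counts of exflagellation centres (brightfield, 10 frames over 1 s) and Pfs25-positive female gametes (Cy3 fluorescence).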

[2] = system: P. falciparum female gametocytes; test: P. falciparum Dual Gamete Formation Assay (PfDGFA), female readout (Pfs25-positive female gametes); assay type: cell-based, Plasmodium falciparum NF54; details: for inhibition at 2 µM: 24h preincubation with gametocytes
Method in brief: as §1

[3] = PfDGFA at 2µM, 24h preincubation with gametocytes prior to induction of gametogenesis, replicate R1
[4] = PfDGFA at 2µM, 24h preincubation with gametocytes prior to induction of gametogenesis, replicate R3
[5] = PfDGFA at 2µM, 24h preincubation with gametocytes prior to induction of gametogenesis, replicate R4
[6] = PfDGFA at 2µM, 24h preincubation, average of replicates
[7] = 2µM, 24h preincubation with gametocytes prior to induction of gametogenesis, average of replicates
[8] = 2µM, 24h preincubation with gametocytes prior to induction of gametogenesis, replicate R1
[9] = 2µM, 24h preincubation with gametocytes prior to induction of gametogenesis, replicate R3
[10] = 2µM, 24h preincubation with gametocytes prior to induction of gametogenesis, replicate R4
[11] = 2µM, 24h preincubation, hits selected on >50% inhibition in the male readout across replicates
[12] = PfDGFA at 2µM, 24h preincubation
[13] = 2µM, 24h preincubation, hits selected on >50% inhibition in the female readout across replicates
[14] = 2µM, 24h preincubation, number of replicates with >50% inhibition in the male readout
[15] = 2µM, 24h preincubation, number of replicates with >50% inhibition in the female readout

Row | Structure (SMILES) | Average inhibition male (%) [1, 7] | % inhibition male (individual replicates) R1 [1, 8] | % inhibition male (individual replicates) R3 [1, 9] | % inhibition male (individual replicates) R4 [1, 10] | HitlevelM [1, 11] | Activity [1, 12] | Average inhibition female (%) [2, 7] | % inhibition female (individual replicates) R1 [2, 8] | % inhibition female (individual replicates) R3 [2, 9] | % inhibition female (individual replicates) R4 [2, 10] | HitlevelF [2, 13] | HitlevelM [1, 14] | HitlevelF [2, 15] | other results
1 | CS(=O)(=O)Cc1ccc(Nc2ncc(Cl)c(Nc3cccnc3C(N)=O)n2)cc1.Cl [TCMDC-134165] | – | – | – | – | – | – | – | – | – | – | – | – | – | Selectivity Ratio M ([1]; HepG2 Tox50 versus male IC50): 16.00; inhibition at 2 µM ([1]; Plasmodium falciparum, 2µM, average of replicates, read-out: Average inhibition male (%)): 92.8%; inhibition at 2 µM ([1]; Plasmodium falciparum, 2µM, replicate R1, read-out: % inhibition male (individual replicates) R1): 89.8%; inhibition at 2 µM ([1]; Plasmodium falciparum, 2µM, replicate R2, read-out: % inhibition male (individual replicates) R2): 95.7%; inhibition at 2 µM ([1]; Plasmodium falciparum, 2µM, replicate R3, read-out: % inhibition male (individual replicates) R3): 93.3%; inhibition at 2 µM ([1]; Plasmodium falciparum, 2µM, replicate R4, read-out: % inhibition male (individual replicates) R4): 92.2%; IC50 ([1]; Plasmodium falciparum, PfDGFA, 24 h incubation with gametocytes before induction, exflagellation readout, read-out: Male IC50): 6.25 µM; Selectivity ratio F ([2]; HepG2 Tox50 versus female IC50): 10.00; inhibition at 2 µM ([2]; Plasmodium falciparum, 2µM, average of replicates, read-out: Average inhibition female (%)): -4.3%; inhibition at 2 µM ([2]; Plasmodium falciparum, 2µM, replicate R1, read-out: % inhibition female (individual replicates) R1): -8.1%; inhibition at 2 µM ([2]; Plasmodium falciparum, 2µM, replicate R2, read-out: % inhibition female (individual replicates) R2): -1.5%; inhibition at 2 µM ([2]; Plasmodium falciparum, 2µM, replicate R3, read-out: % inhibition female (individual replicates) R3): -18.7%; inhibition at 2 µM ([2]; Plasmodium falciparum, 2µM, replicate R4, read-out: % inhibition female (individual replicates) R4): 10.9%; IC50 ([2]; Plasmodium falciparum, PfDGFA, 24 h incubation with gametocytes before induction, female gamete readout, read-out: Female IC50): > 10 µM
2 | CS(=O)(=O)Cc1cccc(Nc2ncc(Cl)c(Nc3cccnc3C(N)=O)n2)c1.Cl [TCMDC-134166] | – | – | – | – | – | – | – | – | – | – | – | – | – | % inhibition male (individual replicates) R1 [1, 3]: 26.3%; % inhibition male (individual replicates) R3 [1, 4]: 45.1%; % inhibition male (individual replicates) R4 [1, 5]: 42.9%; Average inhibition male (%) [1, 6]: 37.5%; % inhibition female (individual replicates) R1 [2, 3]: 12.6%; % inhibition female (individual replicates) R3 [2, 4]: -16.8%; % inhibition female (individual replicates) R4 [2, 5]: 3.4%; Average inhibition female (%) [2, 6]: 1.1%
3 | CC[C@H](C)CNC(=O)c1ccnc(-c2ccc(CN3CCC(N4CCCC4)CC3)cc2)c1.O=C(O)C(F)(F)F [TCMDC-134250] | -12.4% | -12.1% | -7.9% | -29.8% | 0 | 0 | 14.3% | 14.5% | 6.5% | 6.6% | 0 | – | – | –
4 | CC1CCCC(C)N1C[C@@H](O)CNS(=O)(=O)c1cccc(C(F)(F)F)c1.Cl (stereo partly shown) [TCMDC-134258] | 5.6% | -0.6% | 1.0% | 12.9% | 0 | 0 | 4.2% | 10.4% | -24.4% | 21.9% | 0 | – | – | –
5 | CN(C)CCC1CCN(CCS(=O)(=O)c2cccc(Nc3ncc(-c4cccc(F)c4)cn3)c2)CC1 [TCMDC-134374] | 10.6% | 1.8% | -1.4% | 25.6% | – | – | 19.0% | 15.2% | 18.5% | 17.0% | – | 0 | 0 | –
6 | COc1cccc(-c2csc(C(=O)NCC3CCN(Cc4ccc(C(C)(C)C)cc4)C3)c2)c1.O=C(O)C(F)(F)F (stereo not shown) [TCMDC-134447] | 11.1% | 23.9% | 12.3% | 2.2% | – | – | 52.6% | 33.4% | 31.5% | 78.5% | – | 0 | 2 | –
